Measured values as given in ChEMBL document CHEMBL6177997, “Design, Synthesis, and Evaluation of Novel ROCK Inhibitors for Glaucoma Treatment: Insights into In Vitro and In Vivo Efficacy and Safety” (J Med Chem, 2025).

Experiments:
[1] = target: Rho-associated protein kinase 1 (Homo sapiens, UniProt Q13464); test: Inhibition of ROCK1 (unknown origin) incubated for 40 mins in presence of ATP by ADP-glo assay
[2] = target: Rho-associated protein kinase 2 (Homo sapiens, UniProt O75116); test: Inhibition of ROCK2 (unknown origin) incubated for 40 mins in presence of ATP by ADP-glo assay
Rho-associated protein kinase 2, sequence (O75116 whole entry): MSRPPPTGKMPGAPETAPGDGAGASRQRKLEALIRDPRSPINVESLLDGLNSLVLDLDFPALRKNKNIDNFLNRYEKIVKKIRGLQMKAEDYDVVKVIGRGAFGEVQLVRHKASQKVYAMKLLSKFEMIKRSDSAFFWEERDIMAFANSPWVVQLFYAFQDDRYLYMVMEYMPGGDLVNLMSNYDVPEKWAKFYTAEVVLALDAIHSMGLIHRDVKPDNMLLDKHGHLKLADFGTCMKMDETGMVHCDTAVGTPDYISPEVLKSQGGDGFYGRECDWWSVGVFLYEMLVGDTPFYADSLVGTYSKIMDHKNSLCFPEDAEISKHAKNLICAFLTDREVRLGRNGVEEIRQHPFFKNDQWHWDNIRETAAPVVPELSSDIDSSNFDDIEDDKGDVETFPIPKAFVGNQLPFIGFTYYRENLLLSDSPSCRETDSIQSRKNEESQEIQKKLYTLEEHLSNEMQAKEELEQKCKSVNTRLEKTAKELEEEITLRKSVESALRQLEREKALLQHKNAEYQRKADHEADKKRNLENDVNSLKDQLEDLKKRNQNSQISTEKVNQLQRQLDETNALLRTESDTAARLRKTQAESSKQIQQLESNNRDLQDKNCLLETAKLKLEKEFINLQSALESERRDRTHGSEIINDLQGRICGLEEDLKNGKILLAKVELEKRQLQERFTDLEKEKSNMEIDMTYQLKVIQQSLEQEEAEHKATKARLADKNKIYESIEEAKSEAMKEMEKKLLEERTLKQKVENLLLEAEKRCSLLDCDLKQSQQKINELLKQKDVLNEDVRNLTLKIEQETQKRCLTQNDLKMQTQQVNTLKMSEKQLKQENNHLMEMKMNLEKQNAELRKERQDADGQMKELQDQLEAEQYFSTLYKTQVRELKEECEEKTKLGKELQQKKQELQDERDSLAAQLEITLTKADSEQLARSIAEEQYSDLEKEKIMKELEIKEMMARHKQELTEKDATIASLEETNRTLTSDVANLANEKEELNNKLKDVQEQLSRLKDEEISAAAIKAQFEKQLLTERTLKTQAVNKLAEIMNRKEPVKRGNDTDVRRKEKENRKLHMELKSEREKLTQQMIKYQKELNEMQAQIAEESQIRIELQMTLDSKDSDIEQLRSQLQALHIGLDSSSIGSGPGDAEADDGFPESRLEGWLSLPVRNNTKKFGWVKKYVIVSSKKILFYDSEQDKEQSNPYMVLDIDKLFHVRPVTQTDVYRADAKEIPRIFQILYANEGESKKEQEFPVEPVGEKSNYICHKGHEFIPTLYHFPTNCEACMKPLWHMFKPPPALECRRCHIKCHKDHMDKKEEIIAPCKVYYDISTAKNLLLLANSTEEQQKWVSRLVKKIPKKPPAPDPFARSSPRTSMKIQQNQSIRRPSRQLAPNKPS

[3] = target: MAP kinase-interacting serine/threonine-protein kinase 1 (Homo sapiens, UniProt Q9BUB5); test: Inhibition of MNK1 (unknown origin) at 5 uM preincubated for 10 mins followed by substrate addition and measured after 60 mins by ADP-glo kinase assay relative to control; details: time 70.0 min
MAP kinase-interacting serine/threonine-protein kinase 1, sequence (Q9BUB5 whole entry, looked up): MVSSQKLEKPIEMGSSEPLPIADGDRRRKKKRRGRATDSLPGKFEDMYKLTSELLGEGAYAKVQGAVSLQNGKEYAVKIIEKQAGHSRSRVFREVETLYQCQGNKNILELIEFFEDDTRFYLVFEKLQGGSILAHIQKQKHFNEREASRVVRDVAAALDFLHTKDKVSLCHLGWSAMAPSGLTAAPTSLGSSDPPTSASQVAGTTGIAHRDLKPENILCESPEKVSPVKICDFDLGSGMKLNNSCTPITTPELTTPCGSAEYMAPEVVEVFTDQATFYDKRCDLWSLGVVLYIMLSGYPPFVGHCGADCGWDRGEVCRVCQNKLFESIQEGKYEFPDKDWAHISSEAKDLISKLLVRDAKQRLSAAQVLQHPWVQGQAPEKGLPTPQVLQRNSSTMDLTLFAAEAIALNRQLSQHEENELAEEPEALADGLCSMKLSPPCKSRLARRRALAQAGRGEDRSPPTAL

[4] = target: MAP kinase-interacting serine/threonine-protein kinase 2 (Homo sapiens) (UniProt Q9HBH9); test: Inhibition of MNK2 (unknown origin) at 5 uM preincubated for 10 mins followed by substrate addition and measured after 60 mins by ADP-glo kinase assay relative to control; details: time 70.0 min
MAP kinase-interacting serine/threonine-protein kinase 2 (Homo sapiens), sequence (Q9HBH9 whole entry, looked up): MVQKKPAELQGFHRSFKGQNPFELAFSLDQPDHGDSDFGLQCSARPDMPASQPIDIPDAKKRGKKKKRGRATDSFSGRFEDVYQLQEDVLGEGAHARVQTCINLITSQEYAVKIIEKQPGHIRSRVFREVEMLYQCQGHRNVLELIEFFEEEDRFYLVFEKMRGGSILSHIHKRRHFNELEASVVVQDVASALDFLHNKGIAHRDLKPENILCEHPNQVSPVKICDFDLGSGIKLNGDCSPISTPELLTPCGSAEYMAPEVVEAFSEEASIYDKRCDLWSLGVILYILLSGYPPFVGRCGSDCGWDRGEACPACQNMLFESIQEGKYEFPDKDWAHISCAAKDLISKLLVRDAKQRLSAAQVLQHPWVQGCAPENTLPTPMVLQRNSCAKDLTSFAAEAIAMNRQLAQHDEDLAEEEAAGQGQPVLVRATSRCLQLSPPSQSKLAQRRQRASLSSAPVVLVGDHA

Rho-associated protein kinase 1, sequence (Q13464 whole entry): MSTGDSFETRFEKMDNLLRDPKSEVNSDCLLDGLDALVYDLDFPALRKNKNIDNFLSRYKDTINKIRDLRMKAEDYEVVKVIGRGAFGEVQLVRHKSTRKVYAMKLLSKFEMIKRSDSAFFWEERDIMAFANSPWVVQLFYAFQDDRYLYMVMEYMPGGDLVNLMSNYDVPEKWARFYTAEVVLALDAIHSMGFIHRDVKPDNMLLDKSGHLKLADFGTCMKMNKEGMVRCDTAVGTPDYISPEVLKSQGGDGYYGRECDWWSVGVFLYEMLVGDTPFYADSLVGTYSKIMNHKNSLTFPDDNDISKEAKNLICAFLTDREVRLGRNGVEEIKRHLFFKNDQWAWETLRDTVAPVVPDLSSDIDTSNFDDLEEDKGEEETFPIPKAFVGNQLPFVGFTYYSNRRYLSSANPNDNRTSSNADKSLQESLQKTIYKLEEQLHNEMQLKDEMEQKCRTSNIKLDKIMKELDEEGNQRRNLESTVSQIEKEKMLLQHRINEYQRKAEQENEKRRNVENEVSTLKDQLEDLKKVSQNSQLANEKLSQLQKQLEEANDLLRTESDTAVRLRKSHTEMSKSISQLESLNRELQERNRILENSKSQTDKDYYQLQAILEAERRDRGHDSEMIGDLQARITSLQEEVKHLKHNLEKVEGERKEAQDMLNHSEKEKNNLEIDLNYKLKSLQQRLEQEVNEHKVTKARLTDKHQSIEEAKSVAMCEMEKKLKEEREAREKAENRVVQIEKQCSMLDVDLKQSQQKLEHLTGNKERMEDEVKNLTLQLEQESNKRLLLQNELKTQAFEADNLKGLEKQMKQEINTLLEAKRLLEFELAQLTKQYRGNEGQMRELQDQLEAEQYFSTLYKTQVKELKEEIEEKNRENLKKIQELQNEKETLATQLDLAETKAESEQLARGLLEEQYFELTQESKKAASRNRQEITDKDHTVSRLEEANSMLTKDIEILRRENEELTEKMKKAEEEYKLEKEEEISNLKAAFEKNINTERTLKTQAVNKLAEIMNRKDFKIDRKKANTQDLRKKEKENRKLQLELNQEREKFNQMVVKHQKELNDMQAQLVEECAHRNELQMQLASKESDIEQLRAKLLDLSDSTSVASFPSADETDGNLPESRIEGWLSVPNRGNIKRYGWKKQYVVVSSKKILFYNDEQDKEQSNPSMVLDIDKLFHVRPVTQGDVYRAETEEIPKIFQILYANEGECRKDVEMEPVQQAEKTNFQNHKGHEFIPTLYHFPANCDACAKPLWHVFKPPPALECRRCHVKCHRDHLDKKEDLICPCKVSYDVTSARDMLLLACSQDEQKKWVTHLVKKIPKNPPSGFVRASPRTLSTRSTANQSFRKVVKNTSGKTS

SMILES	IC50 [1] [nM]	IC50 [2] [nM]	inhibition [3] [%]	inhibition [4] [%]
O=C(C1CCCCC1)N1CCC(c2cc(-c3ccnc4[nH]ccc34)[nH]n2)CC1	1720	2110	20.8	14.6
O=S(=O)(F)N1CCC(c2cc(-c3ccnc4[nH]ccc34)[nH]n2)CC1	229	329	68.3	86.7
CC(=O)c1ccc(C(=O)N2CCC(c3cc(-c4ccnc5[nH]ccc45)[nH]n3)CC2)cc1	512	468	71.7	60.9
c1ccc(CN2CCC(c3cc(-c4ccnc5[nH]ccc45)[nH]n3)CC2)cc1	197	172	73.2	82.4
COc1cccc(C(=O)N2CCC(c3cc(-c4ccnc5[nH]ccc45)[nH]n3)CC2)c1	805	577	52.5	34.3
CC(=O)c1cccc(CN2CCC(c3cc(-c4ccnc5[nH]ccc45)[nH]n3)CC2)c1	895	823	69.2	89
COC(=O)c1cccc(CN2CCC(c3cc(-c4ccnc5[nH]ccc45)[nH]n3)CC2)c1	570	390	61.6	70.9
O=C(c1ccc(F)cc1)N1CCC(c2cc(-c3ccnc4[nH]ccc34)[nH]n2)CC1	821	833	61.1	47.4
O=C(Cc1ccccc1)N1CCC(c2cc(-c3ccnc4[nH]ccc34)[nH]n2)CC1	432	433	49.7	72.2
FC(F)(F)c1cccc(CN2CCC(c3cc(-c4ccnc5[nH]ccc45)[nH]n3)CC2)c1	1180	969	50.9	57.2
Cc1ccc(CN2CCC(c3cc(-c4ccnc5[nH]ccc45)[nH]n3)CC2)cc1	> 5000	> 5000	76	82.2
COc1ccc(CC(=O)N2CCC(c3cc(-c4ccnc5[nH]ccc45)[nH]n3)CC2)cc1	813	486	8.8	4.2
COC(=O)c1ccc(C(=O)N2CCC(c3cc(-c4ccnc5[nH]ccc45)[nH]n3)CC2)cc1	777	401	77.1	53.4
O=C(CC1CC1)N1CCC(c2cc(-c3ccnc4[nH]ccc34)[nH]n2)CC1	1180	787	39.3	46.5
COc1ccc(CN2CCC(c3cc(-c4ccnc5[nH]ccc45)[nH]n3)CC2)cc1	183	118	61.5	67.4
Fc1cccc(CN2CCC(c3cc(-c4ccnc5[nH]ccc45)[nH]n3)CC2)c1	295	338	69.9	76.8
O=C(c1ccc(Cl)cc1)N1CCC(c2cc(-c3ccnc4[nH]ccc34)[nH]n2)CC1	899	369	82.2	58.4

The remaining lines, values ahead:

IC50 [1] [nM]	IC50 [2] [nM]	inhibition [3] [%]	inhibition [4] [%]	SMILES
425	295	71.1	78.8	Fc1ccc(CN2CCC(c3cc(-c4ccnc5[nH]ccc45)[nH]n3)CC2)cc1F
350	305	41.6	62.7	COc1cccc(CC(=O)N2CCC(c3cc(-c4ccnc5[nH]ccc45)[nH]n3)CC2)c1
1340	1060	68.1	73.5	c1ccc(Oc2cccc(CN3CCC(c4cc(-c5ccnc6[nH]ccc56)[nH]n4)CC3)c2)cc1
241	150	65.2	66.1	COc1ccc(CN2CCC(c3cc(-c4ccnc5[nH]ccc45)[nH]n3)CC2)cc1OC
> 10000	> 10000	6.4	6.9	Cc1ccc(S(=O)(=O)N2CCC(c3cc(-c4ccnc5[nH]ccc45)[nH]n3)CC2)cc1
791	553	56	61	C=CC(=O)N1CCC(c2cc(-c3ccnc4[nH]ccc34)[nH]n2)CC1
823	699	78.6	63.5	O=C(c1ccc([N+](=O)[O-])cc1)N1CCC(c2cc(-c3ccnc4[nH]ccc34)[nH]n2)CC1
696	362	73	59.7	COc1ccc(C(=O)N2CCC(c3cc(-c4ccnc5[nH]ccc45)[nH]n3)CC2)cc1OC
842	542	66.6	52.1	O=C(c1cccc(F)c1)N1CCC(c2cc(-c3ccnc4[nH]ccc34)[nH]n2)CC1
773	484	74.4	52.2	Cc1ccc(C(=O)N2CCC(c3cc(-c4ccnc5[nH]ccc45)[nH]n3)CC2)cc1
1160	939	81.3	57.4	O=C(c1ccc(C(F)(F)F)cc1)N1CCC(c2cc(-c3ccnc4[nH]ccc34)[nH]n2)CC1
829	492	75.3	54.7	COc1ccc(C(=O)N2CCC(c3cc(-c4ccnc5[nH]ccc45)[nH]n3)CC2)cc1
261	130	71.4	84.4	N#CCN1CCC(c2cc(-c3ccnc4[nH]ccc34)[nH]n2)CC1
489	1070	63.6	73.4	O=S(=O)(C1CC1)N1CCC(c2cc(-c3ccnc4[nH]ccc34)[nH]n2)CC1
1490	1450	60.8	74.4	COc1cc(C(=O)N2CCC(c3cc(-c4ccnc5[nH]ccc45)[nH]n3)CC2)cc(OC)c1OC
1010	1070	40.9	42.5	O=C(C1CC1)N1CCC(c2cc(-c3ccnc4[nH]ccc34)[nH]n2)CC1
1220	980	41.8	58	CC(=O)N1CCC(c2cc(-c3ccnc4[nH]ccc34)[nH]n2)CC1
286	158	16	22.4	CCS(=O)(=O)N1CCC(c2cc(-c3ccnc4[nH]ccc34)[nH]n2)CC1
846	1050	39.9	42.3	O=C(C1CCC1)N1CCC(c2cc(-c3ccnc4[nH]ccc34)[nH]n2)CC1
1980	3880	47.5	44.4	O=C(C1CCCC1)N1CCC(c2cc(-c3ccnc4[nH]ccc34)[nH]n2)CC1
699	907	67.2	53.3	O=C(c1ccc(F)c(F)c1)N1CCC(c2cc(-c3ccnc4[nH]ccc34)[nH]n2)CC1
> 5000	> 5000	71.4	79.9	Cc1cccc(CN2CCC(c3cc(-c4ccnc5[nH]ccc45)[nH]n3)CC2)c1
